Patent US12110276B2 (Genentech, Inc., priority 2021, dated 2024)
pIC50: −log10 of the molar value.

Assays:
TEAD2 = TEAD2 (Homo sapiens (Human), UniProt Q15562);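 further: TR-FRET competition assay with His-tagged TEAD protein and a biotinylated lipid pocket probe, compound pre-incubated 30 min or 4 h at room temperature, displacement lowers signal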
TEAD3 = TEAD3 (Homo sapiens (Human), UniProt Q99594); assay: TR-FRET lipid pocket probe competition assay (Lipid HTRF), TEAD3; format: binding; conditions: 4 hours pre-incubation; read-out: Lipid HTRF TEAD3 IC50
TEAD1 = TEAD1 (Homo sapiens (Human), UniProt P28347); assay: TR-FRET lipid pocket probe competition assay (Lipid HTRF), TEAD1; format: binding; conditions: 4 hours pre-incubation; read-out: Lipid HTRF TEAD1 IC50;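 further: His-tagged TEAD1 with biotinylated probe, detected via Europium anti-His and XL665 streptavidin, probe displacement lowers TR-FRET signal, IC50 from four-parameter nonlinear fit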
Chain of TEAD1 (P28347 whole entry, species assumed): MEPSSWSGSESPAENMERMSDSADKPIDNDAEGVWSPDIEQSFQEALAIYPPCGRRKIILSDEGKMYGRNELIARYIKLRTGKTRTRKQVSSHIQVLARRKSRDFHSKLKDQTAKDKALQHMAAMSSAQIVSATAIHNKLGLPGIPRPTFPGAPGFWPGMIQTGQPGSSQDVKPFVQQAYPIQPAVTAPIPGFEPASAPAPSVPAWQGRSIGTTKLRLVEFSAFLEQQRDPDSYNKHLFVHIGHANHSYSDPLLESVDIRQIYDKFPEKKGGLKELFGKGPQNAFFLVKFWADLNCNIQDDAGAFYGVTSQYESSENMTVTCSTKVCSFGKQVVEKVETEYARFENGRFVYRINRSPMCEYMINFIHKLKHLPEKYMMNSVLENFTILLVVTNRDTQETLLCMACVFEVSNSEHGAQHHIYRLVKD
Method: His-tagged TEAD proteins are pre-incubated with TEAD project compounds for 30 minutes or 4 hours at room temperature. Biotinylated lipid pocket probes are then added to the TEAD/Compound mixture and incubated for 60 minutes at room temperature. The lipid pocket probe competes with the test compound for the TEAD lipid pocket until equilibrium is reached. After 60 minutes, Europium labelled anti-His (Perkin Elmer #AD0110) and XL665 labelled streptavidin (CIS Bio 610SAXAC) are added to the TEAD/test compound/lipid pocket mixture and incubated for 30 minutes or 4 hours. […] If a TEAD lipid pocket binder such as binds and displaces the lipid pocket probe, the disruption of the TEAD:probe interaction results in a decrease in TR-FRET signal. The potency of compounds as TEAD lipid pocket binders is determined by IC50 value generated using a non-linear 4 parameter curve fit.

Chain of TEAD2 (Q15562 whole entry, species assumed): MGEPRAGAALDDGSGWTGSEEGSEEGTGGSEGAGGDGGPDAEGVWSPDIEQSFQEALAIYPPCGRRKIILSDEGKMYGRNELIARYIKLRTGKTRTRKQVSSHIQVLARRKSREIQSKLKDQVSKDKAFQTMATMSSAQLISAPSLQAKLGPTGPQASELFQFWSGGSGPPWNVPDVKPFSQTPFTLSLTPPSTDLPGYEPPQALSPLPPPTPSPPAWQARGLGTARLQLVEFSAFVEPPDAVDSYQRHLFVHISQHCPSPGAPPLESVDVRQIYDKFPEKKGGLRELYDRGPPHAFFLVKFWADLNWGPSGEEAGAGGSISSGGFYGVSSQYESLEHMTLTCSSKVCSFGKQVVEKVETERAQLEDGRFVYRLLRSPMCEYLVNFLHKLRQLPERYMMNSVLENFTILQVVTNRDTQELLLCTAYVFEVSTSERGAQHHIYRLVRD
Chain of TEAD3 (Q99594 whole entry, species assumed): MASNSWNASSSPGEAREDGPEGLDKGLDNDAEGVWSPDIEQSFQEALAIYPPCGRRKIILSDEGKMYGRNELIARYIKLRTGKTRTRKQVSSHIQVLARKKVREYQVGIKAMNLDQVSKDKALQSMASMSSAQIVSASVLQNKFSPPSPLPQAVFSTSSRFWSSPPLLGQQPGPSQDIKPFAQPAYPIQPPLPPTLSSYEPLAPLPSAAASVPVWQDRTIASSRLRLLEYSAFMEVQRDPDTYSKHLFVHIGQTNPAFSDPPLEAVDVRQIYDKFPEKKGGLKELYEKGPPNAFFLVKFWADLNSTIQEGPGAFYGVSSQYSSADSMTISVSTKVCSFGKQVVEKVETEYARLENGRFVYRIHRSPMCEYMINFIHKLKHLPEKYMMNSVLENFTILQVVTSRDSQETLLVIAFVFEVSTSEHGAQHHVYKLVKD

| Compound | pIC50 (TEAD2) | pIC50 (TEAD3) | pIC50 (TEAD1) |
| --- | --- | --- | --- |
| C/C=C/C(=O)NCc1nn(-c2ccc(OC(F)(F)F)cc2)c2nccc(CO)c12 [Compound 61, (E)-N-((4-(Hydroxymethyl)-1-(4-(trifluoromethoxy)phenyl)-1H-pyrazolo[3,4-b]pyridin-3-yl)methyl)but-2-enamide] | 5.64 | 4.30 | – |
| O=C(C1=CCC1)N1CC(c2nn(-c3ccc(OC(F)(F)F)cc3)c3nccc([C@H](O)CO)c23)C1 [Compound 72, (S)-Cyclobut-1-en-1-yl(3-(4-(1,2-dihydroxyethyl)-1-(4-(trifluoromethoxy)phenyl)-1H-pyrazolo[3,4-b]pyridin-3-yl)azetidin-1-yl)methanone] | 8.12 | 7.72 | – |
| O=C(C1=CCC1)N1CC(c2nn(-c3ccc(OC(F)(F)F)cc3)c3nccc([C@@H](O)CO)c23)C1 [Compound 115, (R)-cyclobut-1-en-1-yl(3-(4-(1,2-dihydroxyethyl)-1-(4-(trifluoromethoxy)phenyl)-1H-pyrazolo[3,4-b]pyridin-3-yl)azetidin-1-yl)methanone] | 8.22 | 7.96 | – |
| O=C(NCc1nn(-c2ccc(OC(F)(F)F)cc2)c2nccc(CO)c12)C1=CCOC1 [Compound 149, N-((4-(Hydroxymethyl)-1-(4-(trifluoromethoxy)phenyl)-1H-pyrazolo[3,4-b]pyridin-3-yl)methyl)-2,5-dihydrofuran-3-carboxamide] | – | – | 6.04 |
| C/C=C/S(=O)(=O)N1CC(c2nn(-c3ccc(OC(F)(F)F)cc3)c3nccc([C@H](O)CO)c23)C1 [Compound 161, (S,E)-1-(3-(1-(Prop-1-en-1-ylsulfonyl)azetidin-3-yl)-1-(4-(trifluoromethoxy)phenyl)-1H-pyrazolo[3,4-b]pyridin-4-yl)ethane-1,2-diol] | 8.47 | – | – |
| C/C=C/S(=O)(=O)N1CC(c2nn(-c3ccc(OC(F)(F)F)cc3)c3nccc([C@@H](O)CO)c23)C1 [Compound 162, (R,E)-1-(3-(1-(prop-1-en-1-ylsulfonyl)azetidin-3-yl)-1-(4-(trifluoromethoxy)phenyl)-1H-pyrazolo[3,4-b]pyridin-4-yl)ethane-1,2-diol] | 8.00 | – | – |

Continued, values first:

| pIC50 (TEAD2) | pIC50 (TEAD3) | pIC50 (TEAD1) | Compound |
| --- | --- | --- | --- |
| 6.74 | – | – | C=CC(=O)NCc1nn(-c2ccc(OC(F)(F)F)cc2)c2nccc(N3CC([C@@H](C)O)C3)c12 (stereo in doubt) [Compound 123, N-((4-(3-(1-hydroxyethyl)azetidin-1-yl)-1-(4-(trifluoromethoxy)phenyl)-1H-pyrazolo[3,4-b]pyridin-3-yl)methyl)acrylamide] |
| 6.54 | – | – | C=CC(=O)NCc1nn(-c2ccc(OC(F)(F)F)cc2)c2nccc(N3CC([C@H](C)O)C3)c12 (stereo in doubt) [Compound 138, N-((4-(3-(1-hydroxyethyl)azetidin-1-yl)-1-(4-(trifluoromethoxy)phenyl)-1H-pyrazolo[3,4-b]pyridin-3-yl)methyl)acrylamide] |
| 7.57 | 7.04 | – | O=C(/C=C/CO)N1CC(c2nn(-c3ccc(OC(F)(F)F)cc3)c3nccc([C@@H](O)CO)c23)C1 [Compound 95, (R,E)-1-(3-(4-(1,2-dihydroxyethyl)-1-(4-(trifluoromethoxy)phenyl)-1H-pyrazolo[3,4-b]pyridin-3-yl)azetidin-1-yl)-4-hydroxybut-2-en-1-one] |
| 6.92 | 6.85 | – | O=C(/C=C/CO)N1CC(c2nn(-c3ccc(OC(F)(F)F)cc3)c3nccc([C@H](O)CO)c23)C1 [Compound 108, (S,E)-1-(3-(4-(1,2-Dihydroxyethyl)-1-(4-(trifluoromethoxy)phenyl)-1H-pyrazolo[3,4-b]pyridin-3-yl)azetidin-1-yl)-4-hydroxybut-2-en-1-one] |
| 8.24 | 7.77 | – | O=C(C1=CCC1)N1CC(c2nn(-c3ccc(OC(F)(F)F)cc3)c3nccc([C@@H](O)CO)c23)C1 [Compound 157, (R)-Cyclobut-1-en-1-yl(3-(4-(1,2-dihydroxyethyl)-1-(4-(trifluoromethoxy)phenyl)-1H-pyrazolo[3,4-b]pyridin-3-yl)azetidin-1-yl)methanone] |
